The text below walks through data of patent US20040235900A1, “Antimicrobial oxazolifinones with improved pharmacokinetic profile and safety advantages” (priority 2002, published 2004).

Converted amounts (≈) assume the structure as drawn.

Data set [1] has as its system Methicillin Resistant Staphylococcus aureus MRSA-32. In words: In-vitro MIC test (agar dilution), MRSA-32. The format is cell-based. The following applies: Staphylococcus aureus, MRSA; Mueller Hinton agar, 24 hrs at 35° C.; read-out: Minimum Inhibitory Concentrations (MIC) MRSA-32. The text has this:
(§1) The test methods used for verifying the antimicrobial action of compound within the scope of this invention are essentially the same as those described in PCT WO 95/25106, U.S. Pat. No. 5,668,286 and EP 0 750, 618 B1, with the difference that the strains of the organisms used for the MIC determinations in these patents and applications are Staphylococcus aureus ATCC 25923, Staphylococcus epidermidis ATCC 12828, Streptococcus pyogenes ATCC 19615.
(§2) The in-vitro MIC methods of test compounds were determined essentially as described in PCT WO 95/25106, U.S. Pat. No. 5,668,286 and EP 0 750 618 B1.
(§3) Overnight grown cultures of S. aureus organisms in Tryptic Soya broth were diluted in Mueller Hinton Broth to give optical density matching with MacFarland tube 0.5 standard. Cultures were further diluted 1:10 in Mueller Hinton broth. Using Denley's mutipoint inoculator, 10^4 cells were deposited on Mueller Hinton agar (Difco) containing range of 2 fold dilutions of test compounds. These plates were incubated for 24 hrs at 35° C. and MIC results recorded. MIC is defined as minimum drug concentration that inhibits test organisms. For determining MIC of test compounds against Streptococcus pneumoniae, Mueller Hinton agar containing 5% sheep blood was employed.
Background: Agar dilution tests growth on a series of plates holding different concentrations.

For data set [2], the system named is Enterococcus faecalis ATCC 29212. As to the kind of experiment: In-vitro MIC test (agar dilution), E. faecalis. It counts as cell-based. The following applies: ATCC29212, Mueller Hinton agar, 24 hrs at 35° C., read-out: Minimum Inhibitory Concentrations (MIC) E. faecalis.
Source text: as §1, §2, §3

Data set [3] in a line: Pharmacokinetic study, single oral dose in beagle dog. It counts as in vivo. The following applies: serum, single oral dose 5 mg/kg p.o., Compound No. 4 and linezolid in 5% Tween, other compounds in cyclodextrin; for AUC(0-t): read-out: AUC (0-24 hr); for concentration at 12 hr: read-out: C-12 hr. The procedure: Oral (5 mg/kg) and intravenous (5 mg/kg bolus) pharmacokinetic studies were done in dog. Blood samples were collected at time points of 0, 0.08 (not for oral), 0.25, 0.50, 1.0, 1.5, 2.0, 3.0, 4.0, 5.0, 6.0, 8.0, 10.0, 12.0 and 24.0 hours. To facilitate i.v. dosing and collection of blood samples, the dogs were implanted with cannula in cephalic vein. Serum obtained from blood samples was used for HPLC-based analysis.
(§4) Serum samples were extracted by solid phase extraction technique using Water's OASIS HLB cartridges. An HPLC-Diode array detection system was used for analysis. Prepared samples were chromatographed on a YMC-AM reversed phase column (150×4.6 mm ID; 5 μm) using an isocratic mobile phase acetate buffer (50 mmol ammonium acetate pH 6.6) acetonitrile, 66:34% v/v (for a representative compound of the invention, 68:32% v/v for compound Nos. 30, 3, 7 and 11 of U.S. Pat. No. 5,668,286, and 75:25% v/v for linezolid) at a flow rate of 1 ml/min, measured at λmax 254 nm. Independently prepared analytical standards and quality control samples were analyzed with each set of unknown samples.
The pharmacokinetics of a representative compound of the invention following single oral dose administration of the compound in beagle dog is shown in Table 2.

Data set [4] is described as follows: Pharmacokinetic study, single I.V. bolus dose in beagle dog. The format is in vivo. The following applies: iv, single I.V. bolus dose 15 mg/kg (table title), Compound No. 4 and linezolid in 5% Tween, other compounds in cyclodextrin, serum; for concentration at 12 hr: read-out: C-12 hr; for AUC(0-t): read-out: AUC (0-24 hr). The procedure: Blood samples were collected at time points of 0, 0.08 (not for oral), 0.25, 0.50, 1.0, 1.5, 2.0, 3.0, 4.0, 5.0, 6.0, 8.0, 10.0, 12.0 and 24.0 hours. To facilitate i.v. dosing and collection of blood samples, the dogs were implanted with cannula in cephalic vein. Serum obtained from blood samples was used for HPLC-based analysis.
as §4
The pharmacokinetics of a representative compound of the invention following single I.V. bolus dose administration of the compound in beagle dog is shown in Table 3.

In general, half-life refers to the time in which the quantity being followed falls by half. Lower therefore signals rapid decline. In general, Cmax refers to the maximum level reached in the sampled fluid or tissue. For `CC(=O)NC[C@H]1CN(c2ccc(N3CCOCC3)c(F)c2)C(=O)O1` [Linezolid], the MIC in data set [1] was 2 mg/L (≈ 5.93 µM). For the same molecule, the MIC in data set [2] is 2 mg/L (≈ 5.93 µM). For the same molecule, in data set [3], the half-life is 2.42 ± 0.17 h, the AUC(0-t) amounted to 22.8 ± 2.17 µg·h/mL, the concentration peaked (Cmax) at 5.7 ± 0.69 µg/mL and the concentration at 12 hr is 0 µg/mL. Also, in data set [4], the concentration peaked (Cmax) at 7.16 µg/mL, the concentration at 12 hr turned out to be 0 µg/mL, the half-life was 2.41 h and the AUC(0-t) is 23.3 µg·h/mL.

In the case of `CC(=O)NC[C@H]1CN(c2ccc(N3CCC(CC#N)CC3)c(F)c2)C(=O)O1` [Compound 4, (S)-N-{3-[4-(4-cyanomethyl-piperidin-1-yl)-3-fluoro-phenyl]-2-oxo-oxazolidin-5-ylmethyl}-acetamide], the MIC in data set [1] was 2 mg/L (≈ 5.34 µM). In addition, the MIC in data set [2] worked out at 2 mg/L (≈ 5.34 µM). In data set [3], the half-life is 10.8 ± 2.45 h, the AUC(0-t) was 71.56 ± 0.25 µg·h/mL, the Cmax was determined as 5.66 ± 1.49 µg/mL and the concentration at 12 hr was 2.84 ± 0.17 µg/mL. In data set [4], the Cmax was 8.28 µg/mL, the concentration at 12 hr was 2.64 µg/mL, the half-life was 12.9 h and the AUC(0-t) came to 80.9 µg·h/mL.
